Usually viability stands for a per cent measure of how many cells are alive, often set against a control.

Data on two compounds can be found in patent US20100069319A1, “Mercaptopurine derivatives and uses thereof” (priority 2007, published 2010).

One data set deals with MDR HT-29 cells. The data set is described as follows: Cell death assessment by PI staining, phase-contrast and fluorescence microscopy. The following applies: MDR HT-29, 150 μM, 16 h. The format is cell-based, human. How it is done: (§1) Cell death was monitored by trypan blue dye exclusion test or propidium iodide (PI) incorporation. Treated cells were incubated with PI (2 μg/ml) for 20 min at 37° C., washed with HBS and examined by fluorescence microscopy or analyzed by flow cytometry using fluorescence-activated cell sorting (Becton Dickinson FACScan Instrument using CellQuest software (BD Bioscience, San Jose, Calif.). Monolayer cells were trypsinized and washed with HBS before FACS analysis.
In order to determine the toxic effect of 6-MP and SA-6MP on multidrug resistant cell lines, MDR HT-29 cells were treated for 16 h with 150 μM of either 6-MP or SA-6MP for 16 h, and were then stained with PI.

The next data set has as its system B-CLL. The data set is described as follows: Anti-proliferative concentration IC50 (Table 2). Conditions: Homo sapiens, 16 h, tested at 0-100 μM, read-out: Anti-proferative concentration - IC50 (mean ± SE). The format is cell-based. As for the experimental part:
(§2) Cell proliferation was determined by the XTT viability assay in 96-well plates, based on the reduction of tetrazolium salt to soluble formazan compounds by living cells. Cells (10,000-15,000 cells/well) were seeded in a 96-well plate. After 16 h incubation with various concentrations of 6-MP, 6-MPR and their S-allylthio-derivatives, 50 μl of XTT/PMS mixture (50 μM PMS, 0.1% XTT in medium) was added onto the cells. After an incubation period of 3-4 h at 37° C. the absorbance of the samples was measured in an ELISA Reader at 450 nm. SDS (1%, 10 μl/well) was added to reference wells before adding the XTT/PMS solution.
(§3) The results of viability and proliferation were expressed as mean values±SD (n=3-6). For each cell line, the results were analyzed using two-way analysis of variance (ANOVA) followed by Bonferroni's posttest for the factors of the drugs used and their various concentrations, considering p<0.05 as significant. IC50 values (mean±SEM) were obtained from the linear range of the viability curve versus drug concentration (XTT assay).
(§4) In particular, cell in suspension, namely, Daudi, HL-60, U937, Molt-4, Jurkat and B-CLL, were tested at prodrug concentration of 0-100 μM, and monolayer cells, namely, Hela HtTA-1, MDR HT-29 and N87, were tested at prodrug concentration of 0-200 μM. in both cases, cell viability was determined by trypan blue dye exclusion assay. Data are presented in Table 2 hereinbelow for 6MP derivatives-treated for 16 h.

The subject of the next data set is Daudi. The data set is described as follows: Anti-proliferative concentration IC50 (Table 2). The format is cell-based. The following applies: Homo sapiens, 16 h, tested at 0-100 μM, read-out: Anti-proferative concentration - IC50 (mean ± SE). As for the experimental part:
as §2, §3, §4

For a further data set, the system named is Molt-4. The data set is described as follows: Anti-proliferative concentration IC50 (Table 2). The format is cell-based. Conditions: Homo sapiens; Molt-4, 16 h, tested at 0-100 μM; read-out: Anti-proferative concentration - IC50 (mean ± SE). As for the experimental part: as §2, §3, §4
The test system of data set [1] is Daudi cells. The data set is described as follows: XTT cell proliferation assay. The format is cell-based. The following applies: 16 h. As for the experimental part:
as §2
The inhibitory effects of the various prodrugs on Daudi leukemia cell and on monolayer N87 cells were compared. […] XTT was added to the wells for 3 h at 37° C. Cell viability was monitored using an ELISA reader at 450 nm, as described in Materials and Methods.
Background: Tetrazolium assays rely on reduction of a dye to a coloured formazan, in cell work by metabolically active cells.

Data set [2] relates to human peripheral blood mononuclear cells (PBMCs). Conditions: after 4 days of treatment, read-out: IC50, T-cell mitogen-induced blastogenesis; cited from earlier work.
The test system of data set [3] is Daudi cells. Nature of the data set: Cell death by trypan blue dye exclusion / PI. The format is cell-based. The following applies: 16 h. How it is done:
as §1
In parallel, the trypan blue dye exclusion test was used to assess cell death. In particular, different concentrations of 6MP and SA-6MP were applied to various cell cultures (Daudi and Hela cells, each at 30,000 cells/well) as described in Materials and Methods. The cells were stained with trypan blue to monitor the lethal effect of several concentrations of the tested conjugates as the percentage of dead cells. As shown in FIG. 3A-3D, cell death induced by 6-MP and SA-6MP was both concentration and cell type dependent. […] SA-6MP at concentrations higher than 150 μM reduced the residual viability to 75% (FIG. 3D).

The next data set deals with Hela. The data set is described as follows: Anti-proliferative concentration IC50 (Table 2). The format is cell-based, human. Conditions: Homo sapiens, 16 h, tested at 0-200 μM, read-out: Anti-proferative concentration - IC50 (mean ± SE). How it is done: as §2, §3, §4
In a further data set the test system is MDR HT-29. The data set is described as follows: Anti-proliferative concentration IC50 (Table 2). The format is cell-based, human. Conditions: Homo sapiens; MDR HT-29, 16 h, tested at 0-200 μM; read-out: Anti-proferative concentration - IC50 (mean ± SE). How it is done:
as §2, §3, §4

A short description of data set [4]: Nonactive 6-MP dimers in the medium of treated cell lines. The source says:
The fact that only a fraction of the thiopurine molecules occurs in its active form explains the need for a high prodrug concentration. The allylthio moiety of the new derivative protects the free SH from such oxidation. Only later, upon entry to the cellular reducing environment is the mixed disulfide SA-6MP cleaved, which renders higher efficiency at lower concentrations. The proposed mechanism for the reaction of SA-6MP with free thiols in the cell is depicted in Scheme 2 hereinafter.

In another data set the test system is N87. The data set is described as follows: Anti-proliferative concentration IC50 (Table 2). The format is cell-based, human. Conditions: Homo sapiens; N87, 16 h, tested at 0-200 μM; read-out: Anti-proferative concentration - IC50 (mean ± SE). How it is done: as §2, §3, §4
A further data set concerns HL-60. The data set is described as follows: Anti-proliferative concentration IC50 (Table 2). The format is cell-based, human. The following applies: Homo sapiens; HL-60, 16 h, tested at 0-100 μM; read-out: Anti-proferative concentration - IC50 (mean ± SE). As for the experimental part:
as §2, §3, §4

As to `Sc1ncnc2nc[nH]c12` [6-MP, 6-Mercaptopurine, reference compound], the “epithelial-like growth / cell death” value in the data set on MDR HT-29 cells is recorded as “no inhibition was observed”. Further, the IC50 in the data set with B-CLL is > 900 µM; with Daudi, > 200 µM; in the data set on Molt-4, 50.5 ± 6.1 µM; in data set [2], 0.149 ± 0.125 µM; in the data set on Hela, > 200 µM; in the data set with MDR HT-29, > 200 µM. Moreover, in the data set with Daudi cells [1] (0-100 μM), the “cell proliferation” value is recorded as “no significant loss of cell proliferation”. Further, in the data set on Daudi cells [3] (concentrations higher than 100 μM), the “effect on cell viability” value is “no significant effect on cell viability”. For the same compound, the “nonactive 6-MP dimers (purine-S-S-purine) in the medium” value in [4] is recorded as “dimers were indeed found in the medium”.
Turning to `C=CCSSc1ncnc2nc[nH]c12` [SA-6MP, S-allylthio-6-mercaptopurine], the “epithelial-like growth / cell death” value in the data set on MDR HT-29 cells was “epithelial-like growth was inhibited”. Besides, the IC50 in the data set on B-CLL was found to be 129 ± 14.2 µM; in the data set with Daudi, 38.3 ± 3.9 µM; in the data set on Molt-4, 8.9 ± 1.2 µM; with Hela it was 114 ± 12 µM; in the data set on MDR HT-29, 126 ± 19.1 µM; in the data set with N87 it was 70.5 ± 8.5 µM. In addition, in the data set with HL-60, the IC50 came out at 42 ± 3.8 µM. Also, the residual proliferation in the data set on Daudi cells [1] (50 μM) is reported as 15-30%. Also, the viability at 50 µM with Daudi cells [3] (Homo sapiens, 50 μM, read-out: residual viability) was ~20%. The “nonactive 6-MP dimers (purine-S-S-purine) in the medium” value in data set [4] is “not in the medium”.
